Laboratory results reported in patent US8604055B2, “Substituted benzylamino quinolines as cholesterol ester-transfer protein inhibitors” (Dr. Reddy's Laboratories Ltd., priority 2004, dated 2013).

Target: T1, Recombinant CETP enzyme (Homo sapiens, UniProt P11597)
T1 construct: purchased Cardiovascular Targets
T1 sequence (P11597 18-493): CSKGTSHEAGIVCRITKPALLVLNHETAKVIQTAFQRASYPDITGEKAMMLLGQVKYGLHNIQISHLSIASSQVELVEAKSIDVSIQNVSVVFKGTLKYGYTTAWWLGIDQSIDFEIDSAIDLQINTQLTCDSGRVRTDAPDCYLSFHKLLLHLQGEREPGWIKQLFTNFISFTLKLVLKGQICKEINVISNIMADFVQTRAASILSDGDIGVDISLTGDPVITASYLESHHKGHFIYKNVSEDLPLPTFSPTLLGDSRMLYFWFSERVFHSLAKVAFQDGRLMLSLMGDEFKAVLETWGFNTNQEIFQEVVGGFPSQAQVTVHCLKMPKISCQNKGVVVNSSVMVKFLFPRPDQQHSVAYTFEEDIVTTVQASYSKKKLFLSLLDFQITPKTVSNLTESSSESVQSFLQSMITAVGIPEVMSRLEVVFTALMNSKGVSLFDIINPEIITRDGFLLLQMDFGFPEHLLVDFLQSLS
Assay: In vitro fluorescence-based CETP inhibition assay (BODIPY-CE transfer from donor to acceptor microemulsions)
Format: biochemical
Details: recombinant CETP 0.14 ng/μl; transfer of fluorescent cholesteryl ester monitored over 2 hours; vs DMSO controls
Protocol: An in vitro fluorescence-based assay to identify CETP inhibitors was developed from modifications of the protocols outlined in Bisgaier et al., J Lipid Res., 34(9): 1625-34 (1993) and Epps et al., Chem Phys Lipids., 77(1): 51-63 (1995). Acceptor and donor lipid microemulsions were prepared according to Bisgaier et al., 1993, except that the buffer was prepared with 0.67 ug/mL human HDL (Calbiochem). Donor microemulsions contained the fluorescent cholesteryl ester analog BODIPY-CE (Molecular Probes), characterized by excitation and emission maxima at 503 nm and 518 nm, respectively. The CETP-mediated transfer of fluorescent cholesteryl ester to acceptor particles was monitored over a 2-hour time period using the FAM filter set (excitation 492 nm, emission 516 nm) in an MX3000P fluorescent plate reader (Stratagene). Recombinant CETP enzyme (Cardiovascular Targets) was used at 0.14 ng/μl, final concentration, to achieve lipid transfer. CETP inhibition by compounds was compared to DMSO controlsand graphed as a percentage of the control CETP activity over 2 hours. The IC50 curves for CETP inhibition were generated from the activity profiles. Active compounds were also tested for CETP inhibition as above, but in the presence of 3% human serum albumin, fraction V (Calbiochem).

SMILES	IC50 [nM]
Cc1nn(C)c2nc(N(C)CC3CCC3)c(CN(Cc3cc(C(F)(F)F)cc(C(F)(F)F)c3)c3nnn(C)n3)cc12 [Example 4, (5-{[(3,5-bis-trifluoromethyl-benzyl)-(2-methyl-2H-tetrazole-5-yl)-amino]-methyl}-1,3-dimethyl-1H-pyrazolo[3,4-b]pyridin-6-yl)-cyclobutylmethyl-methyl-amine]	≤ 1000
CCN(c1nc2c(cc1CN(Cc1cc(C(F)(F)F)cc(C(F)(F)F)c1)c1nnn(C)n1)c(C)nn2C)C(C)C [Example 7, (5-{[(3,5-bis-trifluoromethyl-benzyl)-(2-methyl-2H-tetrazole-5-yl)-amino]-methyl}-1,3-dimethyl-1H-pyrazolo[3,4-b]pyridin-6-yl)-ethyl-isopropyl-amine]	≤ 1000
CCN(CC1CCCC1)c1nc2c(cc1CN(Cc1cc(Cl)cc(Cl)c1)c1nnn(C)n1)c(C)nn2C [Example 19, cyclopentylmethyl-(1,3-dimethyl-5-{[(2-methyl-2H-tetrazol-5-yl)-(3,5-dichlorobenzyl)-amino]-methyl}-1H-pyrazolo[3,4-b]pyridin-6-yl)-ethyl-amine]	≤ 1000
CCN(CC1CCCC1)c1nc2c(cc1CN(Cc1cc(F)cc(F)c1)c1nnn(C)n1)c(C)nn2C [Example 18, cyclopentylmethyl-ethyl-(5-{[(3,5-difluoro-benzyl)-(2-methyl-2H-tetrazol-5-yl)-amino]-methyl}-1,3-dimethyl-1H-pyrazolo[3,4-b]pyridine-6-yl)-amine]	≤ 1000
Cc1cc(N(Cc2cc(C(F)(F)F)cc(C(F)(F)F)c2)Cc2cc3c(C)nn(C)c3nc2N(CC2CC2)CC2CC2)no1 [Example 11, (5-{[(3,5-bis-trifluoromethyl-benzyl)-(5-methyl-isoxazol-3-yl)-amino]-methyl}-1,3-dimethyl-1H-pyrazolo[3,4-b]pyridin-6-yl)-bis-cyclopropylmethyl-amine]	≤ 1000
CCCCN(CC)c1ncccc1CN(Cc1cc(C(F)(F)F)cc(C(F)(F)F)c1)c1nnn(C)n1 [Example 73]	≤ 5000
Cc1nn(C)c2nc(N(CC3CC3)C(=O)C3CC3)c(CN(Cc3cc(C(F)(F)F)cc(C(F)(F)F)c3)c3nnn(C)n3)cc12 [Example 27, cyclopropanecarboxylic acid (5-{[(3,5-bis-trifluoromethyl-benzyl)-(2-methyl-2H-tetrazol-5-yl)-amino]-methyl}-1,3-dimethyl-1H-pyrazolo[3,4-b]pyridin-6-yl)-cyclopropylmethyl-amide]	≤ 1000
Cc1cccc2cc(CN(Cc3cc(C(F)(F)F)cc(C(F)(F)F)c3)c3nnn(CCNC(=O)OC(C)(C)C)n3)c(N(CC3CC3)CC3CC3)nc12 [Example 86, (2-{5-[[2-(bis-cyclopropylmethyl-amino)-8-methyl-quinolin-3-ylmethyl]-(3,5-bis-trifluoromethyl-benzyl)-amino]-tetrazol-2-yl}-ethyl)-carbamic acid tert-butyl ester]	≤ 1000
CCN(CC1CCCC1)c1nc2c(cc1CN(Cc1cc(F)cc(C(F)(F)F)c1)c1nnn(C)n1)c(C)nn2C [Example 20, cyclopentylmethyl-ethyl-(5-{[(3-fluoro-5-trifluoromethyl-benzyl)-(2-methyl-2H-tetrazol-5-yl)-amino]-methyl}-1,3-dimethyl-1H-pyrazolo[3,4-b]pyridin-6-yl)-amine]	≤ 1000

Now from value to compound:

IC50 [nM]	SMILES
≤ 5000	CCN(CC1CCCC1)c1nc2ccccc2cc1CN(Cc1cc(C(F)(F)F)cc(C(F)(F)F)c1)Cc1nnnn1C [Example 71, (3-{[(3,5-bis-trifluoromethyl-benzyl)-(1-methyl-1H-tetrazol-5-ylmethyl)-amino]-methyl}-quinolin-2-yl)-cyclopentylmethyl-ethyl-amine]
≤ 5000	CCN(CC1CCCC1)c1nc2ccccc2cc1CN(Cc1cc(C(F)(F)F)cc(C(F)(F)F)c1)C(=O)OC [Example 35, (3,5-bis-trifluoromethyl-benzyl)-[2-(cyclopentylmethyl-ethyl-amino)-quinolin-3-ylmethyl]-carbamic acid methyl ester]
≤ 1000	Cc1cccc2cc(CN(Cc3cc(C(F)(F)F)cc(C(F)(F)F)c3)c3ccc(Br)cn3)c(N(CC3CC3)CC3CC3)nc12 [Example 111, (3-{[(3,5-bis-trifluoromethyl-benzyl)-(5-bromo-pyridin-2-yl)-amino]-methyl}-8-methyl-quinolin-2-yl)-bis-cyclopropylmethyl-amine]
≤ 1000	CCN(CC1CCC1)c1nc2c(cc1CN(Cc1cc(C(F)(F)F)cc(C(F)(F)F)c1)c1nnn(C)n1)c(C)nn2C [Example 1, (5-{[(3,5-bis-trifluoromethyl-benzyl)-(2-methyl-2H-tetrazole-5-yl)-amino]-methyl}-1,3-dimethyl-1H-pyrazolo[3,4-b]pyridin-6-yl)-cyclobutylmethyl-ethyl-amine]
≤ 5000	CCCN(CC1CCCC1)c1nc2ccccc2cc1CN(Cc1cc(C(F)(F)F)cc(C(F)(F)F)c1)C(=O)OCC [Example 43, (3,5-bis-trifluoromethyl-benzyl)-[2-(cyclopentylmethyl-propyl-amino)-quinolin-3-ylmethyl]-carbamic acid ethyl ester]
≤ 1000	Cc1cccc2cc(CN(Cc3cc(C(F)(F)F)cc(C(F)(F)F)c3)c3nnn(CCO)n3)c(N(CC3CC3)CC3CC3)nc12 [Example 93, 2-{5-[[2-(bis-cyclopropylmethyl-amino)-8-methyl-quinoline-3-ylmethyl]-(3,5-bistrifluoromethyl-benzyl)-amino]-tetrazol-2-yl}-ethanol]
≤ 5000	CCN(CC1CCCC1)c1nc2ccccc2cc1CN(Cc1cc(C(F)(F)F)cc(C(F)(F)F)c1)c1ncccn1 [Example 66, (3-{[(3,5-bis-trifluoromethyl-benzyl)-pyrimidin-2-yl-amino]-methyl}-quinolin-2-yl)-cyclopentylmethyl-ethyl-amine]
≤ 5000	CCN(CC1CCCC1)c1nc2ccc(C)cc2cc1CN(Cc1cc(C(F)(F)F)cc(C(F)(F)F)c1)C(=O)OC [Example 46, (3,5-bis-trifluoromethyl-benzyl)-[2-(cyclopentylmethyl-ethyl-amino)-6-methyl-quinolin-3-ylmethyl]-carbamic acid methyl ester]
≤ 1000	CCN(CC1CCC1)c1nc2c(cnn2CC2CC2)cc1CN(Cc1cc(C(F)(F)F)cc(C(F)(F)F)c1)c1nnn(C)n1 [Example 101, (5-{[(3,5-bis-trifluoromethyl-benzyl)-(2-methyl-2H-tetrazol-5-yl)-amino]methyl}-1-cyclopropylmethyl-1H-pyrazolo[3,4-b]pyridin-6-yl)-cyclobutylmethyl-ethyl-amine]
≤ 1000	CCN(CC1CCCC1)c1nc2c(cc1CN(Cc1cc(C(F)(F)F)cc(C(F)(F)F)c1)c1nnn(C)n1)CCCC2 [Example 77]
≤ 1000	CCN(CC1CCCC1)c1nc2c(cc1CN(Cc1cc(C(F)(F)F)cc(C(F)(F)F)c1)c1nnn(C)n1)c(C)nn2C [Example 24, (5-{[(3,5-bis-trifluoromethyl-benzyl)-(2-methyl-2H-tetrazol-5-yl)-amino]-methyl}-1,3-dimethyl-1H-pyrazolo[3,4-b]pyridin-6-yl)-cyclopentylmethyl-ethyl-amine]
≤ 1000	Cc1cccc2cc(CN(Cc3cc(C(F)(F)F)cc(C(F)(F)F)c3)c3ncnc(Cl)n3)c(N(CC3CC3)CC3CC3)nc12 [Example 117, (3-{[(3,5-bis-trifluoromethyl-benzyl)-(4-chloro-[1,3,5]triazin-2-yl)-amino]-methyl}-8-methyl-quinolin-2-yl)-bis-cyclopropylmethyl-amine]
